Reference: ChEMBL document CHEMBL1155367, “Design and synthesis of new stabilized combi-triazenes for targeting solid tumors expressing the epidermal growth factor receptor (EGFR) or its closest homologue HER2” (Bioorg Med Chem Lett, 2009)
Activity calls are given as the source filed them. No cut-off for these calls is given here.

Tests used:
[1] = biological target: Epidermal growth factor receptor (Homo sapiens, UniProt P00533); assay: Inhibition of EGFR-mediated poly(L-glutamic acid L-tyrosine) phosphorylation
NIH3T3 = assay: Growth inhibition of mouse NIH/3T3 cells expressing erB2 gene; format: functional, cell-based
MDA-MB-468 = assay: Induction of DNA damage in human MDA-MB-468 cells assessed as tail movements by comet assay; format: functional, cell-based
[2] = Stability assessed as degradation to FD105 at 37 degC by fluorescence; format: physicochemical

Epidermal growth factor receptor, sequence (P00533 whole entry): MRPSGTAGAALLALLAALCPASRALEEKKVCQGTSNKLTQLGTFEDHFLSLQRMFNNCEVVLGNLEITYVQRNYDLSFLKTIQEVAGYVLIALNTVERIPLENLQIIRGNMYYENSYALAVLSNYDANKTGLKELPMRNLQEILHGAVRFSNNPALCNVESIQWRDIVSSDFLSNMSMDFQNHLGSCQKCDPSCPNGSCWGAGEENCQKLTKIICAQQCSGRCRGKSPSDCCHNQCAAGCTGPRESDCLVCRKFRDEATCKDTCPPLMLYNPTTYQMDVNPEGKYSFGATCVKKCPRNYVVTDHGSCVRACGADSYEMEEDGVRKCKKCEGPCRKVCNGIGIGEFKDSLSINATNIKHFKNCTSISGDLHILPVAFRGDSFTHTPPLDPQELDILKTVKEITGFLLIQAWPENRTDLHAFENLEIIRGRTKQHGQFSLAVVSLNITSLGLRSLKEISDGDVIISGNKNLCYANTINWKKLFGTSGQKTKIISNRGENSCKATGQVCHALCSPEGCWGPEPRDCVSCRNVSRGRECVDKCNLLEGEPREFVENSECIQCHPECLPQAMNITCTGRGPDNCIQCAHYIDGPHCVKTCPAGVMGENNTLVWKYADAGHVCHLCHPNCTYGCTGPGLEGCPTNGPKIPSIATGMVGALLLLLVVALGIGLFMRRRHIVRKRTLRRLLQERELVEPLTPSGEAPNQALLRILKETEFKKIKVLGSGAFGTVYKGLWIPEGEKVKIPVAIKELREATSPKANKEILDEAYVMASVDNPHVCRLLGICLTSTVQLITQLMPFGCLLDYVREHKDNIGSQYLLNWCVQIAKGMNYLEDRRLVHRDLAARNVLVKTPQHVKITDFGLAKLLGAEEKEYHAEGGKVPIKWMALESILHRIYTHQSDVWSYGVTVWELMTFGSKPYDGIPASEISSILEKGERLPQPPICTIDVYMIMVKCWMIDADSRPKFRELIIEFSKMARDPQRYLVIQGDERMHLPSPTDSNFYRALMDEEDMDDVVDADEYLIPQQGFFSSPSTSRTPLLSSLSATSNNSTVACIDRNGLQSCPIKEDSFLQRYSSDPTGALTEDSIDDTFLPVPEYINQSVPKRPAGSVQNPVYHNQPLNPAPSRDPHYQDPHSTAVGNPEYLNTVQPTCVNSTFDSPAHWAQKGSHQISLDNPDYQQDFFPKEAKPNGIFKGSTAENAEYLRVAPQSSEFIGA

| SMILES | IC50 [1] [nM] | Stability [2] | IC50 (NIH3T3) [nM] | Activity (MDA-MB-468) |
| --- | --- | --- | --- | --- |
| C=COC(=O)N(C)/N=N/c1ccc2ncnc(Nc3cccc(Cl)c3)c2c1 | 720 | Stable | 2370 | inactive |
| C=COC(=O)N(CCN(C)C)/N=N/c1ccc2ncnc(Nc3cccc(Cl)c3)c2c1 | 180 |  | 2280 | Dose-dependent effect |
| CN(/N=N/c1ccc2ncnc(Nc3cccc(Cl)c3)c2c1)C(=O)Oc1ccc([N+](=O)[O-])cc1 | 770 | Stable | 3790 | Dose-dependent effect |

The remaining molecules from weak to strong by IC50 [1], led by results:

| IC50 [1] [nM] | Stability [2] | SMILES | IC50 (NIH3T3) [nM] | Activity (MDA-MB-468) |
| --- | --- | --- | --- | --- |
| 630 | Stable | CC(=O)OCOC(=O)N(C)/N=N/c1ccc2ncnc(Nc3cccc(Cl)c3)c2c1 | 1500 | Dose-dependent effect |
| 390 |  | CN(/N=N/c1ccc2ncnc(Nc3cccc(Cl)c3)c2c1)C(=O)OCCl | 4940 | Dose-dependent effect |
| 240 | Unstable | CC(=O)OCN(C)/N=N/c1ccc2ncnc(Nc3cccc(Cl)c3)c2c1 |  |  |
